Assay results published in ChEMBL document CHEMBL3714755, “Pyridinyl amides as P2X3 and P2X2/3 inhibitors” (2014).
The source made the active and inactive calls. The rule behind the calls is not given here.

Target: P2X2/P2X3 heterotrimeric receptor (Homo sapiens) (UniProt Q9UBL9+P56373)
Experiment: Antagonist activity against human P2X2/3 receptor expressed in CHOK1 cells assessed as inhibition of alpha,beta-meATP-induced calcium response incubated for 20 mins by Fluo-3AM dye based FLIPR assay
Format: functional, cell-based
Conditions: CHO-K1

| Structure (SMILES) | inhibition |
| --- | --- |
| Cc1ccc(-c2cc(C(=O)N[C@@H](C)CO)cc(N(C)C(=O)C(C)C)c2)c(F)c1 | Active |
| Cc1ccc(-c2cc(C(=O)NC(C)c3cnccn3)cc(N(C)C(=O)C3CCOCC3)c2)cc1 (configuration not stated) | Active |
| COCC(C)NC(=O)c1cc(NC(=O)c2ccccn2)cc(-c2ccc(C)cc2)c1 (configuration not stated) | Active |
| CCN(C(=O)c1cccnc1)c1cc(C(=O)NC(C)c2cnccn2)cc(-c2ccc(C)cc2)c1 (configuration not stated) | Active |
| Cc1ccc(-c2cc(C(=O)NC(C)c3cnccn3)cc(N(C(=O)C(C)C)c3ccncn3)c2)cc1 (configuration not stated) | Active |
| CC(=O)N(c1cc(C(=O)NC(C)c2cnccn2)cc(-c2ccc(C)cc2)c1)c1ccncn1 (configuration not stated) | Active |
| CC(C)C(=O)N(C)c1cc(C(=O)NC(C)c2cnccn2)cc(-c2ccc(F)cc2F)c1 (configuration not stated) | Active |
| CC(NC(=O)c1cc(-c2ccc(Cl)cc2)cc(N(C)C(=O)N2CCOCC2)c1)c1cnccn1 (configuration not stated) | Active |
| Cc1ccc(-c2cc(C(=O)NC(C)c3cnccn3)cc(N(C)C(=O)c3snnc3C)c2)cc1 (configuration not stated) | Active |
| CCC(=O)N(C)c1cc(C(=O)N[C@H](C)CN2CCOCC2)cc(-c2ccc(C)cc2)c1 | Active |
| Cc1ccc(-c2cc(C(=O)NCc3cnccn3)cc(N(C)C(=O)C(C)C)c2)c(Cl)c1 | Active |
| COCC(=O)N(C)c1cc(C(=O)NC(C)c2cnccn2)cc(-c2ccc(C)cc2)c1 (configuration not stated) | Active |
| COCC(C)NC(=O)c1cc(NC(=O)c2cscc2OC)cc(-c2ccc(C)cc2)c1 (configuration not stated) | Active |
| Cc1ccc(-c2cc(C(=O)N[C@@H](C)CO)cc(N(C)C(=O)C(C)C)c2)c(Cl)c1 | Active |
| CCN(C(=O)CC(C)C)c1cc(C(=O)NC(C)CO)cc(-c2ccc(C)cc2)c1 (configuration not stated) | Active |
| Cc1ccc(-c2cc(C(=O)NC(C)c3cnccn3)cc(N(C)C(=O)C3CCCC3)c2)cc1 (configuration not stated) | Active |
| CCN(C(=O)OC(C)C)c1cc(C(=O)NC(C)c2cnccn2)cc(-c2ccc(C)cc2)c1 (configuration not stated) | Active |
| CCN(C(=O)OCC(C)C)c1cc(C(=O)NC(C)c2cnccn2)cc(-c2ccc(C)cc2)c1 (configuration not stated) | Active |
| COC[C@@H](C)NC(=O)c1cc(-c2ccc(Cl)cc2Cl)cc(N(C)C(=O)C(C)C)c1 | Active |
| CC(=O)N(C)c1cc(C(=O)NC(C)c2cnccn2)cc(-c2ccc(C)cc2)c1 (configuration not stated) | Active |
| COCC(C)NC(=O)c1cc(NC(=O)c2c(-c3ccccc3)noc2C)cc(-c2ccc(C)cc2)c1 (configuration not stated) | Active |
| Cc1ccc(-c2cc(C(=O)N[C@@H](C)CO)cc(N(C)C(=O)C3CCCC3)c2)cc1 | Active |
| CCN(C(=O)C(C)C)c1cc(C(=O)NC(C)c2cnccn2)cc(-c2ccc(C)cc2)c1 (configuration not stated) | Active |
| COCC(C)NC(=O)c1cc(NC(=O)c2ccco2)cc(-c2ccc(C)cc2)c1 (configuration not stated) | Active |

| Structure (SMILES) | inhibition |
| --- | --- |
| COCC(C)NC(=O)c1cc(NC(=O)c2cscn2)cc(-c2ccc(C)cc2)c1 (configuration not stated) | Active |
| Cc1ccc(-c2cc(C(=O)NC(C)c3cnccn3)cc(N(C)C(=O)C(C)C)c2)nc1 (configuration not stated) | Active |
| CC(C)C(=O)N(C)c1cc(C(=O)N[C@@H](C)CO)cc(-c2ccc(Cl)cn2)c1 | Active |
| CCC(C)C(=O)N(C)c1cc(C(=O)NC(C)c2cnccn2)cc(-c2ccc(C)cc2)c1 (configuration not stated) | Active |
| Cc1ccc(-c2cc(NC(=O)C(C)C)cc(C(=O)NC(C)c3cnccn3)c2)cc1 (configuration not stated) | Active |
| CC(C)C(=O)N(C)c1cc(C(=O)NCc2cnccn2)cc(-c2ccc(Cl)cn2)c1 | Active |
| COCC(C)NC(=O)c1cc(NC(=O)c2cc(C)nn2C)cc(-c2ccc(C)cc2)c1 (configuration not stated) | Active |
| CC(=O)N1CCC(C(=O)N(C)c2cc(C(=O)NC(C)c3cnccn3)cc(-c3ccc(C)cc3)c2)CC1 (configuration not stated) | Active |
| COCC(C)NC(=O)c1cc(NC(=O)c2cc(C)on2)cc(-c2ccc(C)cc2)c1 (configuration not stated) | Active |
| Cc1ccc(-c2cc(C(=O)NCc3cnc(C)cn3)cc(N(C)C(=O)C3(C)COC3)c2)nc1 | Active |
| CCN(C(=O)CC(C)C)c1cc(C(=O)NC(C)c2cnccn2)cc(-c2ccc(C)cc2)c1 (configuration not stated) | Active |
| CCC(=O)N(c1cc(C(=O)NC(C)c2cnccn2)cc(-c2ccc(C)cc2)c1)c1ccncn1 (configuration not stated) | Active |
| Cc1ccc(-c2cc(C(=O)NC(C)c3cnccn3)cc(N(C)C(=O)C(C)C)c2)c(Cl)c1 (configuration not stated) | Active |
| COCC(C)NC(=O)c1cc(NC(=O)c2ccc(C)s2)cc(-c2ccc(C)cc2)c1 (configuration not stated) | Active |
| COCC(C)NC(=O)c1cc(NC(=O)c2ccccc2)cc(-c2ccc(C)cc2)c1 (configuration not stated) | Active |
| Cc1ccc(-c2cc(C(=O)NC(C)c3cnccn3)cc(N(C)C(=O)C(C)C)c2)c(F)c1 (configuration not stated) | Active |
| CCC(C)C(=O)N(C)c1cc(C(=O)N[C@@H](C)CO)cc(-c2ccc(C)cc2)c1 (some centres not stated) | Active |
| CCN(c1cc(C(=O)NC(C)c2cnccn2)cc(-c2ccc(C)cc2)c1)c1cnccn1 (configuration not stated) | Active |
| CCC(=O)N(C)c1cc(C(=O)NC(C)COC)cc(-c2ccc(C)cc2)c1 (configuration not stated) | Active |
| Cc1ccc(-c2cc(C(=O)NC(C)c3cnccn3)cc(N(C)C(=O)C(C)C)c2)cc1 (configuration not stated) | Active |
| CCN(C(=O)COC)c1cc(C(=O)NC(C)c2cnccn2)cc(-c2ccc(C)cc2)c1 (configuration not stated) | Active |
| Cc1ccc(-c2cc(C(=O)NC(C)c3cnccn3)cc(N(C)C(=O)C3CCCCC3)c2)cc1 (configuration not stated) | Active |
| Cc1ccc(-c2cc(C(=O)N[C@@H](C)CO)cc(N(C)C(=O)C(C)C)c2)cc1 | Active |
| CCN(C(=O)C1CCOCC1)c1cc(C(=O)NC(C)c2cnccn2)cc(-c2ccc(C)cc2)c1 (configuration not stated) | Active |

| Structure (SMILES) | inhibition |
| --- | --- |
| Cc1ccc(-c2cc(C(=O)N[C@@H](C)CO)cc(N(C)C(=O)C(C)C)c2)nc1 | Active |
| CCN(C(=O)C(C)C)c1cc(C(=O)N[C@@H](C)CO)cc(-c2ccc(C)cc2)c1 | Active |
| COCC(C)NC(=O)c1cc(NC(=O)c2ccc(C)cc2C)cc(-c2ccc(C)cc2)c1 (configuration not stated) | Active |
| COC[C@@H](C)NC(=O)c1cc(-c2ccc(F)cc2F)cc(N(C)C(=O)C(C)C)c1 | Active |
| CCNC(=O)N(C)c1cc(C(=O)NC(C)c2cnccn2)cc(-c2ccc(Cl)cc2)c1 (configuration not stated) | Active |
| CCN(C(C)=O)c1cc(C(=O)NC(C)c2cnccn2)cc(-c2ccc(C)cc2)c1 (configuration not stated) | Active |
| COCC(C)NC(=O)c1cc(NC(=O)c2cc(C)cs2)cc(-c2ccc(C)cc2)c1 (configuration not stated) | Active |
| CC(NC(=O)c1cc(-c2ccc(Cl)cc2)cc(N(C)C(=O)N(C)C)c1)c1cnccn1 (configuration not stated) | Active |
| COCC(C)NC(=O)c1cc(NC(=O)c2cccs2)cc(-c2ccc(C)cc2)c1 (configuration not stated) | Active |
| CC(C)C(=O)N(C)c1cc(C(=O)NC(C)c2cnccn2)cc(-c2ccc(Cl)cc2Cl)c1 (configuration not stated) | Active |
| COCC(C)NC(=O)c1cc(NC(=O)c2ccc(C(F)(F)F)cc2Cl)cc(-c2ccc(C)cc2)c1 (configuration not stated) | Active |
| COCC(C)NC(=O)c1cc(NC(=O)C2CCCCC2)cc(-c2ccc(C)cc2)c1 (configuration not stated) | Active |
| COCC(C)NC(=O)c1cc(NC(=O)c2ccc(F)cc2Cl)cc(-c2ccc(C)cc2)c1 (configuration not stated) | Active |
| Cc1ccc(-c2cc(C(=O)NCc3cnc(C)cn3)cc(N(C)C(=O)C(C)C)c2)nc1 | Active |
| CCN(C(=O)OC)c1cc(C(=O)NC(C)c2cnccn2)cc(-c2ccc(C)cc2)c1 (configuration not stated) | Active |
| COCC(C)NC(=O)c1cc(NC(=O)c2nc(C)oc2C)cc(-c2ccc(C)cc2)c1 (configuration not stated) | Active |
| Cc1ccc(-c2cc(C(=O)NC(C)c3cnccn3)cc(N(C)C(=O)C(C)(C)C)c2)cc1 (configuration not stated) | Active |
| CCC(C)(C)C(=O)N(C)c1cc(C(=O)NC(C)c2cnccn2)cc(-c2ccc(C)cc2)c1 (configuration not stated) | Active |
| CC(C)C(=O)N(C)c1cc(C(=O)NC(C)c2cnccn2)cc(-c2ccc(Cl)cn2)c1 (configuration not stated) | Active |
| COCC(C)NC(=O)c1cc(NC(=O)c2sccc2C)cc(-c2ccc(C)cc2)c1 (configuration not stated) | Active |
| CCN(C(=O)c1ccncc1)c1cc(C(=O)NC(C)COC)cc(-c2ccc(C)cc2)c1 (configuration not stated) | Active |
| Cc1ccc(-c2cc(C(=O)NCc3cnccn3)cc(N(C)C(=O)C(C)C)c2)cc1 | Active |
| CCC(CC)C(=O)N(C)c1cc(C(=O)NC(C)c2cnccn2)cc(-c2ccc(C)cc2)c1 (configuration not stated) | Active |
| Cc1ccc(-c2cc(C(=O)NCc3cnccn3)cc(N(C)C(=O)C(C)C)c2)c(F)c1 | Active |
